Where two headings read alike, the source gives them in different places. Ends that are not written are not given here.
Experiments:
Format in all cases: cell-based
[1] = tested on: Bacillus subtilis (ATCC 23857)
Description: (§1) Organic phase extract, SPE eluates and HPLC-fractions were screened for antibacterial activity against two strains of Gram-positive and two strains of Gram-negative bacteria; Corynebacterium glutamicum (ATCC 13032), Staphylococcus aureus (ATCC 9144), Pseudomonas aeruginosa #1 (ATCC 27853) and Escherichia coli #1 (ATCC 25922). For extended antimicrobial bioactivity screening, the following bacterial strains were used, three strains of Gram-positive bacteria; S. epidermidis #1 (5179-R1) kindly provided by Holger Rohde, S. epidermidis #2, RP62A (ATCC 35984) and Bacillus subtilis (ATCC 23857) in addition to the Gram-negative P. aeruginosa #2, PA 01 (ATCC 15692, DSM 19880) and E. coli #2, NR 698 (MC4100/ptD4213).
(§2) Cultures stored at -80°C were smeared onto agar plates and cultured for 24 h at 35°C. One colony of each bacterial strain was transferred to 5 ml liquid Müller-Hinton (MH, Difco, Lawrence, KS, USA) medium in a glass tube and left shaking at room temperature overnight at 600 rpm. The cultures of actively growing bacteria (20 μl) were further inoculated in 5 ml MH medium and left shaking for 2 h at room temperature. The antibacterial assays were performed as previously described by. Briefly, the bacterial cultures were diluted with medium to 1.3–1.5 × 10^4 bacteria/ml final concentrations and an aliquot of 50 μl was added to each well in 96-well Nunclon^TM microtiter plates (Nagle Nunc Int., Denmark) preloaded with 50 μl test sample solutions, i.e. extracts, eluates or peptides.
(§3) The test plates were incubated for 24 h at 35°C with optical density (OD595) recorded every hour using an Envision 2103 multilabel reader, controlled by the Wallac Envision manager (PerkinElmer, CT, USA). Antibacterial activity was defined as a sample showing >90% inhibition (as measured by optical density) compared to the negative (growth) controls, consisting of bacteria and water. Oxytetracycline (20 μM) served as a positive (inhibition) control. The minimum inhibitory concentration (MIC) was defined as the lowest concentration of a sample displaying >90% inhibition.
(§4) ACN-phases and SPE eluates were tested with two-fold serial dilutions ranging from 5.0 to 0.005 mg/ml (5.0, 2.5, 1.25, 0.63, 0.31, 0.16, 0.08, 0.04, 0.02, 0.01, 0.005 mg/ml) whereas HPLC-fractions were tested undiluted for antibacterial activity. Pure, native peptides and synthetic peptides (described in section 2.11) were tested for antimicrobial activity in concentrations ranging from 100 to 0.1 μM in two-fold serial dilutions (100, 50, 25, 12.5, 6.25, 3.13, 1.56, 0.78, 0.39, 0.20, 0.10 μM). Antimicrobial assays involving natural peptides (i.e. fractionated natural material) were run only once due to limited quantities, whereas all other assays were run in triplicates.

[2] = tested on: Corynebacterium glutamicum (ATCC 13032)
Description: as §1, §2, §3, §4

[3] = tested on: E. coli #2, NR 698 (MC4100/ptD4213)
Description: as §1, §2, §3, §4

[4] = tested on: Escherichia coli #1 (ATCC 25922)
Description: as §1, §2, §3, §4

[5] = tested on: P. aeruginosa #2, PA 01 (ATCC 15692, DSM 19880)
Description: as §1, §2, §3, §4

[6] = tested on: Pseudomonas aeruginosa #1 (ATCC 27853)
Description: as §1, §2, §3, §4

[7] = tested on: S. epidermidis #1 (5179-R1)
Description: as §1, §2, §3, §4

[8] = tested on: S. epidermidis #2, RP62A (ATCC 35984)
Description: as §1, §2, §3, §4

[9] = tested on: Staphylococcus aureus (ATCC 9144)
Description: as §1, §2, §3, §4

Aureobasidium pullulans = tested on: Aureobasidium pullulans
Experimental: (§5) The synthetic peptides (see section 2.11) were also screened for antifungal activity against Candida albicans (ATCC 10231), Saccharomyces cerevisiae, Rhodotorula sp., Aureobasidium pullulans and Cladosporium sp. The antifungal assay was performed as described previously. Briefly, fungal spores were dissolved in potato dextrose broth (Difco, Lawrence, KS, USA) to a concentration of 4 × 10^5 spores/ml. The spores (50 μl) were inoculated on 96-well Nunclon^TM microtiter plates containing the synthetic peptides (50 μl) dissolved in MQ-H2O. […] MIC was defined as the lowest concentration of peptide giving no visible fungal growth. The negative (growth) control contained medium and fungal solution.
as §4

[10] = tested on: Candida albicans (ATCC 10231)
Experimental: as §5, §4

Cladosporium sp. = tested on: Cladosporium sp.
Experimental: as §5, §4

Rhodotorula sp. = tested on: Rhodotorula sp.
Experimental: as §5, §4

Saccharomyces cerevisiae = tested on: Saccharomyces cerevisiae
Experimental: as §5, §4

[11] = tested on: Gram-positive and Gram-negative bacteria (tested strains); details: 24 h
Description: as §1, with “(MC4100/ptD4213). […]” for “(MC4100/ptD4213).”
The test plates were incubated for 24 h at 35°C with optical density (OD595) recorded every hour using an Envision 2103 multilabel reader, controlled by the Wallac Envision manager (PerkinElmer, CT, USA). […]
ACN-phases and SPE eluates were tested with two-fold serial dilutions ranging from 5.0 to 0.005 mg/ml (5.0, 2.5, 1.25, 0.63, 0.31, 0.16, 0.08, 0.04, 0.02, 0.01, 0.005 mg/ml) whereas HPLC-fractions were tested undiluted for antibacterial activity. […] Antimicrobial assays involving natural peptides (i.e. fractionated natural material) were run only once due to limited quantities, whereas all other assays were run in triplicates.

Sequence: GWWRRTVDKVRNAGRKVAGFASKACGALGH [EeCentrocin 1 HC]
- MIC B. subtilis ([1]; MH medium, 24 h at 35°C, OD595, lowest concentration with >90% inhibition, value of Table 2, synthetic peptides in triplicates): 1.56 µM
- MIC raw data B. subtilis ([1]; parallel 1 of three): 1.56 µM
- MIC raw data B. subtilis ([1]; parallel 2 of three): 1.56 µM
- MIC raw data B. subtilis ([1]; parallel 3 of three): 0.78 µM
- MIC C. glutamicum ([2]; ATCC 13032, 24 h): 0.39 µM
- MIC raw data C. glutamicum ([2]; parallel 1 of three): 0.39 µM
- MIC raw data C. glutamicum ([2]; parallel 2 of three): 0.39 µM
- MIC raw data C. glutamicum ([2]; parallel 3 of three): 0.39 µM
- MIC E. coli #2 ([3]; MH medium, 24 h at 35°C, OD595, >90% inhibition, value of Table 2, triplicates): 1.56 µM
- MIC raw data E. coli #2 ([3]; parallel 1 of three): 1.56 µM
- MIC raw data E. coli #2 ([3]; parallel 2 of three): 1.56 µM
- MIC raw data E. coli #2 ([3]; parallel 3 of three): 1.56 µM
- MIC E. coli #1 ([4]; ATCC 25922, 24 h): 0.78 µM
- MIC raw data E. coli #1 ([4]; parallel 1 of three): 0.78 µM
- MIC raw data E. coli #1 ([4]; parallel 2 of three): 0.78 µM
- MIC raw data E. coli #1 ([4]; parallel 3 of three): 0.78 µM
- MIC P. aeruginosa #2 ([5]; ATCC 15692, 24 h): 3.13 µM
- MIC raw data P. aeruginosa #2 ([5]; parallel 1 of three): 3.13 µM
- MIC raw data P. aeruginosa #2 ([5]; parallel 2 of three): 3.13 µM
- MIC raw data P. aeruginosa #2 ([5]; parallel 3 of three): 3.13 µM
- MIC P. aeruginosa #1 ([6]; MH medium, 24 h at 35°C, OD595, >90% inhibition, value of Table 2, native peptides run once, synthetic in triplicates): 1.56 µM
- MIC raw data P. aeruginosa #1 ([6]; parallel 1 of three): 1.56 µM
- MIC raw data P. aeruginosa #1 ([6]; parallel 2 of three): 1.56 µM
- MIC raw data P. aeruginosa #1 ([6]; parallel 3 of three): 1.56 µM
- MIC S. epidermidis #1 ([7]; #1 (5179-R1, 24 h)): 6.25 µM
- MIC raw data S. epidermidis #1 ([7]; parallel 1 of three): 6.25 µM
- MIC raw data S. epidermidis #1 ([7]; parallel 2 of three): 6.25 µM
- MIC raw data S. epidermidis #1 ([7]; parallel 3 of three): 6.25 µM
- MIC S. epidermidis #2 ([8]; ATCC 35984, 24 h): 3.13 µM
- MIC raw data S. epidermidis #2 ([8]; parallel 1 of three): 3.13 µM
- MIC raw data S. epidermidis #2 ([8]; parallel 2 of three): 3.13 µM
- MIC raw data S. epidermidis #2 ([8]; parallel 3 of three): 3.13 µM
- MIC S. aureus ([9]; ATCC 9144, 24 h): 3.13 µM
- MIC raw data S. aureus ([9]; parallel 1 of three): 3.13 µM
- MIC raw data S. aureus ([9]; parallel 2 of three): 3.13 µM
- MIC raw data S. aureus ([9]; parallel 3 of three): 3.13 µM
- MIC A. pullulans (Aureobasidium pullulans; 24 h): 12.5 µM
- MIC raw data A. pullulans (Aureobasidium pullulans; parallel 1 of three): 12.5 µM
- MIC raw data A. pullulans (Aureobasidium pullulans; parallel 2 of three): 12.5 µM
- MIC raw data A. pullulans (Aureobasidium pullulans; parallel 3 of three): 12.5 µM
- MIC C. albicans ([10]; ATCC 10231, 24 h): 100 µM
- MIC raw data C. albicans ([10]; parallel 1 of three): 100 µM
- MIC raw data C. albicans ([10]; parallel 2 of three): 100 µM
- MIC raw data C. albicans ([10]; parallel 3 of three): 100 µM
- MIC Cladosporium sp. (Cladosporium sp.; 24 h): >100 µM
- MIC raw data Cladosporium sp. (Cladosporium sp.; parallel 1 of three): >100 µM
- MIC raw data Cladosporium sp. (Cladosporium sp.; parallel 2 of three): >100 µM
- MIC raw data Cladosporium sp. (Cladosporium sp.; parallel 3 of three): >100 µM
- MIC raw data Rhodotorula sp. (Rhodotorula sp.; parallel 1 of three): 12.5 µM
- MIC raw data Rhodotorula sp. (Rhodotorula sp.; parallel 2 of three): 12.5 µM
- MIC raw data Rhodotorula sp. (Rhodotorula sp.; parallel 3 of three): 12.5 µM
- MIC Rhodotorula sp. (Rhodotorula sp.; potato dextrose broth, 24 h at room temperature, visual, no visible fungal growth, value of Table 2, triplicates): 12.5 µM
- MIC S. cerevisiae (Saccharomyces cerevisiae; 24 h): 50 µM
- MIC raw data S. cerevisiae (Saccharomyces cerevisiae; parallel 1 of three): 50 µM
- MIC raw data S. cerevisiae (Saccharomyces cerevisiae; parallel 2 of three): 50 µM
- MIC raw data S. cerevisiae (Saccharomyces cerevisiae; parallel 3 of three): 50 µM
- MIC range towards bacteria [11]: 0.39 to 6.25 µM

From paper PMC4805251, “Novel Antimicrobial Peptides EeCentrocins 1, 2 and EeStrongylocin 2 from the Edible Sea Urchin Echinus esculentus Have 6-Br-Trp Post-Translational Modifications” (PLoS ONE, 2016)
